Experimental findings from PubChem BioAssay AID1259375 (The Scripps Research Institute Molecular Screening Center, 2018) are described below.

The target of this experiment is Microphthalmia-associated transcription factor (Homo sapiens) (UniProt O75030). The experiment in a line: MITF inhibitors by FRET titration, dose response, biochemical, high throughput (AID 1259375).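 Further: FRET between CFP-tagged and YFP-tagged MITF protein partners.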 Particulars: FRET biochemical assay, MITF inhibition.
Microphthalmia-associated transcription factor (Homo sapiens), sequence (O75030 whole entry, looked up): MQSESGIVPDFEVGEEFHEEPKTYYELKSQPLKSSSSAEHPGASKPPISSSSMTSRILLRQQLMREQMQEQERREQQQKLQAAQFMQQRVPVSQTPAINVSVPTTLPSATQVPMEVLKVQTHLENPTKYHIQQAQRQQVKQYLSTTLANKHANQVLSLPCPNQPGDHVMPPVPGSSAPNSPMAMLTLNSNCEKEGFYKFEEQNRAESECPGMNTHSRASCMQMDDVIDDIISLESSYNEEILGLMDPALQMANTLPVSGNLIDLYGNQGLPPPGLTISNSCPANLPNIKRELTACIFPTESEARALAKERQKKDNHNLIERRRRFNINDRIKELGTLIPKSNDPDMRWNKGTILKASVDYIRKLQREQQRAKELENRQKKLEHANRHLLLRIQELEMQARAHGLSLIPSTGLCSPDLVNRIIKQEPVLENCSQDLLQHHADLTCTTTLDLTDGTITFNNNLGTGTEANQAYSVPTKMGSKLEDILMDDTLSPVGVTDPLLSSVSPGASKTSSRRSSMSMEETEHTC

Calls of active or inactive are those of the source. How the calls were made is not given here. A value given as a limit tells only on which side of the number the result lay.

For the compound `CN(C)C1C(=O)C(C(N)=O)=C(O)C2(O)C(=O)C3=C(O)c4c(O)cccc4C(C)(O)C3CC12` (stereo not given), the IC50 was > 6.48 µM (inactive).
In the case of `O=C(O)COc1ccc(-n2cccc2)cc1`, the IC50 is > 6.48 µM (inactive).
As for `COc1ccc2nc(-c3ccco3)c(-c3ccco3)nc2c1`, the IC50 entry is “inactive”.
Then `O=C(Nc1ccc(N2CCOCC2)cc1)c1ccnc(Nc2ncccn2)c1`, with > 7.06 µM (inactive); and `CCCCNCCOc1ccccc1OCC`, with > 6.48 µM (inactive); and `O=C1Nc2c(C(=O)O)cccc2C1=O`, with > 7.92 µM (inactive).
In the case of `Cc1ccc(O)c(NC(=S)NC(=O)/C=C/c2ccco2)c1`, the IC50 was > 6.48 µM (inactive).
Consider `O=C(OCN1C(=O)c2ccccc2C1=O)c1cc2c(s1)CCC2`, for which the IC50 was > 7.13 µM (inactive).
Consider `Cn1nnc(-c2ccc(Nc3nccc(-c4ccc5nc(C6CC6)[nH]c(=O)c5c4)n3)cc2)n1`, for which the IC50 is > 6.48 µM (inactive).
To `O=C(O)c1cc([N+](=O)[O-])cc2c1-c1c(cc([N+](=O)[O-])cc1[N+](=O)[O-])/C2=C/c1ccco1` belongs 1.77 µM; to `C[C@H]1C(=O)N2CCN(C(=O)NC3CCCCC3)C[C@@H]2C(=O)N1C`, > 6.48 µM (inactive); to `CC(O)C(=O)N/N=C/C=C/c1ccc([N+](=O)[O-])o1` (stereo not given), > 7.17 µM (inactive).
Then `O=C(O)c1cc(C(=O)O)cc(-c2ccc(/C=N\n3cnnc3)o2)c1`, with > 6.48 µM (inactive); and `CC[C@H](C)[C@@H]1NC(=O)[C@H]2CN(C(=O)NCc3ccccc3)CCN2C1=O`, with > 6.48 µM (inactive); and `O=S(=O)(O)c1cc(S(=O)(=O)O)c2cc(O)c(S(=O)(=O)O)cc2c1`, with > 6.48 µM (inactive).
Consider `O=C(NCc1ccccc1)N1CCN2C(=O)[C@@H]3CSCN3C(=O)[C@H]2C1`, for which the IC50 is > 6.48 µM (inactive).
With `O=C(O)c1cc(S(=O)(=O)Nc2ccc3cn[nH]c3c2)ccc1O`, the IC50 was > 7 µM (inactive).
As for `CN1C(=O)[C@H]2CN(C(=O)NC3CCCCC3)CCN2C(=O)[C@@H]1Cc1ccccc1`, the IC50 is > 6.48 µM (inactive).
Take `c1coc(CNc2ccc3ncc(-c4ccco4)n3n2)c1`: the IC50 is > 6.48 µM (inactive).
For the compound `COc1ccc(C[C@@H]2NC(=O)[C@H]3CN(C(=O)NCc4ccccc4)CCN3C2=O)cc1`, the IC50 was > 6.48 µM (inactive).
For the compound `NC(=O)n1c(CCC(=O)O)nc2sc3c(c2c1=O)CCC3`, the IC50 was > 6.75 µM (inactive).
Then `COc1ccc2c(c1)CC(C(=O)Nc1ccc(-c3cn[nH]c3)cc1OCc1ccccc1)CO2` (stereo not given), with > 6.48 µM (inactive); and `Cc1ncn(-c2ccc(N(C)c3ncc4cccc(-c5ccn[nH]5)c4n3)cc2)n1`, with > 6.48 µM (inactive).
Turning to `CC1=NN(c2ccc(C(=O)O)c(N)c2)C(=O)C1`, the IC50 is > 6.48 µM (inactive).
On to `COc1ccc(/C=C2\N=C(c3ccc4c(c3)OCO4)OC2=O)cc1Cl`, for which the IC50 is > 5.41 µM (inactive).
Take `O=c1cc(/C=C/c2ccc(O)cc2)nc2nn[nH]n12`: the IC50 was > 6.48 µM (inactive).
Consider `O=C(/C=C/c1ccco1)Nc1c[nH]c(=O)[nH]c1=O`, for which the IC50 is > 6.48 µM (inactive).
With `O=C(COC(=O)/C=C/c1ccco1)NCc1ccco1`, the IC50 is > 6.6 µM (inactive).
To `N#Cc1cc([N+](=O)[O-])ccc1NC(=O)COC(=O)c1cc(-c2ccco2)nc2ccccc12` belongs > 7.03 µM (inactive).
Then `Cc1nnc(CNC(=O)c2ccc(-n3cccc3)cc2)o1`, with > 6.48 µM (inactive).
For `O=C(CCc1ccco1)Nc1ccc(-c2cn3c4c(nnc3n2)CCCC4)cc1`, the IC50 is > 6.48 µM (inactive).
`CCn1ccnc1CN1CCN(Cc2cccc(OC)c2)C(CCO)C1` (stereo not given): the IC50 was > 6.48 µM (inactive).
On to `Cc1[nH][nH]c(=O)c1C(c1ccc([N+](=O)[O-])o1)c1c(C)[nH][nH]c1=O`, for which the IC50 is > 6.48 µM (inactive).
On to `O=C(NCCc1ccc(O)cc1)c1ccnc(-c2cccs2)c1`, for which the IC50 was > 6.77 µM (inactive).
For `CCCCOc1ccc(C(=O)N/C(=C/c2ccco2)C(=O)O)cc1`, the IC50 result was “inactive”.
Then `O=C(NCc1ccccc1)N1CCN2C(=O)[C@H]3CCCN3C(=O)[C@H]2C1`, with > 6.48 µM (inactive); and `C/C(=N\NC(=O)CC1=NNC(=O)C1)c1ccco1`, with > 6.48 µM (inactive).
Turning to `N#C/C(=C\c1nn(-c2ccccc2)c(N)c1C#N)c1ccco1`, the IC50 is > 6.48 µM (inactive).
With `O=C(O)c1cccc(-n2cccc2/C=C2/NC(=O)N(c3ccc(Cl)cc3)C2=O)c1`, the IC50 is > 6.48 µM (inactive).
`Nc1cc2c(S(=O)(=O)O)cc(S(=O)(=O)O)cc2cc1S(=O)(=O)O`: the IC50 is > 6.48 µM (inactive).
Take `O=C(Cn1cc(C(=O)c2ccco2)c2ccccc21)NCc1cccnc1`: the IC50 was > 6.48 µM (inactive).
Turning to `CC1=C(C#N)C(c2cc3c(cc2[N+](=O)[O-])OCO3)C2=C(CCCC2=O)N1` (stereo not given), the IC50 is > 6.48 µM (inactive).
Turning to `CCOC(=O)N1CCC(NC(=O)CCc2nc(C3=CCN(C)CC3)no2)CC1`, the IC50 was > 6.48 µM (inactive).
In the case of `O=C1N[C@@H](COCc2ccccc2)C(=O)N2CCN(C(=O)NC3CCCCC3)C[C@H]12`, the IC50 is > 6.48 µM (inactive).
`Cc1cc(NC(=O)C2CCN(C(=O)c3ccc(-n4cccc4)cc3)CC2)no1`: the IC50 is > 6.48 µM (inactive).
Consider `COC(=O)c1ccc(=O)c2nc3/c(=C/O)c(O)cc(=O)c3[nH]c12`, for which the IC50 was 2.02 µM.
Regarding `O=c1[nH]c(/C=C/c2ccco2)nc(O)c1[N+](=O)[O-]`, the IC50 result is “inactive”.
Turning to `COC(=O)CCc1cc2c(C)cc(=O)oc2cc1OCc1ccc(C)cc1`, the IC50 was > 6.48 µM (inactive).
Turning to `O=c1[nH]cnc2nc(-c3ccco3)c(-c3ccco3)nc12`, the IC50 is > 7.63 µM (inactive).
Then `CC1CCC(N2CCN(Cc3ccco3)CC2)CC1` (stereo not given), with > 6.25 µM (inactive).
To `O=C(/C=C/c1ccco1)NC(=S)Nc1ccc(Cl)c(C(=O)O)c1` belongs > 6.48 µM (inactive); to `O=C(O)c1cc(-c2ccco2)nc2ccccc12`, > 7.59 µM (inactive); to `O=C(c1ccc([N+](=O)[O-])cc1)N1CCN(Cc2cccc3ccccc23)CC1`, > 5.48 µM (inactive).
In the case of `Cc1ccc(/C=C/C(=O)NCc2ccccn2)o1`, the IC50 was > 6.48 µM (inactive).
Turning to `O=C(Nc1ccc(Cl)cc1Cl)N1CCN2C(=O)[C@@H]3CSCN3C(=O)[C@H]2C1`, the IC50 is > 6.48 µM (inactive).
`O=C(O)c1ccccc1-c1ccc(/C=C/[N+](=O)[O-])o1`: the IC50 was > 6.48 µM (inactive).
On to `NCC1OC(=O)C(Oc2ccccc2)=C1Br` (stereo not given), for which the IC50 is > 6.48 µM (inactive).
As to `NC(=O)COC(=O)c1cc2c(s1)CCC2`, the IC50 is > 6.91 µM (inactive).
With `COC(=O)CN1C(=O)S/C(=C/c2ccc([N+](=O)[O-])o2)C1=O`, the IC50 is > 6.48 µM (inactive).
On to `CC(=O)NCC(c1cccs1)S(=O)(=O)c1ccc(C)cc1` (stereo not given), for which the IC50 is > 6.41 µM (inactive).
Take `N[C@@H](C(=O)N[C@@H]1C(=O)N2C(C(=O)O)=C(CSC3CNNN3)CS[C@H]12)c1ccc(O)cc1` (stereo not given in full) (tested in a mixture with another compound): the IC50 is > 5.58 µM (inactive).
To `O=C(Nc1ccc(N2CCOCC2)cc1)c1cccc(Nc2ccncn2)n1` belongs > 7.56 µM (inactive); to `O=C1N[C@@H](CSCc2ccccc2)C(=O)N2CCN(C(=O)NCc3ccccc3)C[C@H]12`, > 6.48 µM (inactive).
Turning to `O=C(Nc1ccc(Oc2ccccc2)cc1)c1ccnc(-c2cccs2)c1`, the IC50 was > 6.71 µM (inactive).
Turning to `O=C(O)c1cc(S(=O)(=O)Nc2ccncc2)ccc1O`, the IC50 is > 7.05 µM (inactive).
Take `CN(C)CCCNC(=O)c1cccc(CN(C(=O)c2nc3ccc(-c4cn[nH]c4)cc3s2)C2CC2)c1`: the IC50 is > 6.48 µM (inactive).
In the case of `Cc1oc(C(=O)O)cc1CSCCSCc1cc(C(=O)O)oc1C`, the IC50 was > 6.48 µM (inactive).
Then `O=C(O)/C=C/c1ccc([N+](=O)[O-])o1`, with > 10.6 µM (inactive).
For the compound `CN1C(=O)[C@H]2CN(C(=O)NC3CCCCC3)CCN2C(=O)[C@@H]1CO`, the IC50 was > 6.48 µM (inactive).
To `CN(C)CCNc1nc(C2COc3ccccc3O2)nc2ccc(-c3cn[nH]c3)cc12` (stereo not given) belongs > 6.48 µM (inactive); to `NC(=O)Cn1cnc2sc3c(c2c1=O)CCC3`, > 6.48 µM (inactive).
In the case of `O=C(NCCN1CCOCC1)c1cccc(CN(C(=O)c2nc3ccc(-c4cn[nH]c4)cc3s2)C2CC2)c1`, the IC50 was > 6.48 µM (inactive).
To `Cc1cc(C)n2nc(N)c(N)c2n1` belongs > 11.6 µM (inactive); to `CC(O)(CNCCN1CCOCC1)COc1ccc(Cl)cc1` (stereo not given), > 6.31 µM (inactive).
On to `Cc1ccc([N+](=O)[O-])cc1S(=O)(=O)Nc1ccc(Nc2ncccc2[N+](=O)[O-])cc1`, for which the IC50 was > 6.64 µM (inactive).
Consider `N#Cc1c(-c2ccco2)cc(-c2ccco2)nc1N`, for which the IC50 is > 6.48 µM (inactive).
Then `N#CC1=C(N)n2c(s/c(=C\c3ccco3)c2=O)=C(C#N)C1c1ccco1` (stereo not given), with > 6.53 µM (inactive).
As to `O=C(OC1CCCC1=O)c1ccc(Cl)c(S(=O)(=O)N2CCOCC2)c1` (stereo not given), the IC50 is > 6.69 µM (inactive).
On to `Cc1ccc(-c2nnc3s/c(=C\c4ccco4)c(=O)n23)cc1`, for which the IC50 was > 6.48 µM (inactive).
To `C=CCNC(=O)COC(=O)c1cc(-c2ccco2)nc2ccccc12` belongs > 6.94 µM (inactive); to `Cc1cccc(C(=O)Nc2c3c(nn2-c2ccc(F)cc2)CSC3)c1`, > 5.53 µM (inactive).
Then `O=C(c1ccncc1)N1C2C=CC(C2)C1(C(F)(F)F)C(F)(F)F` (stereo not given), with > 6.48 µM (inactive).
`CCOC(=O)C1C2NC(=S)N(CC)C1(C)Oc1ccc(Br)cc12` (stereo not given): the IC50 was > 6.31 µM (inactive).
For `O=Cc1cccn1-c1ccc(C(=O)O)cc1`, the IC50 was > 6.48 µM (inactive).
Consider `NC(=O)CSc1ccc(C(N)=O)cc1[N+](=O)[O-]`, for which the IC50 is > 7.11 µM (inactive).
